Results on 23 molecules are retold here after patent US20260008760A1, “DIPEPTIDYL PEPTIDASE 1 INHIBITORS AND USES THEREOF” (Insmed Incorporated, priority 2024, published 2026).

For one assay, the target named is DPP1 in HL-60 cells (Homo sapiens, UniProt P53634). Description: DPP1 Cell IC50 assay. The assay is classed as cell-based. More on the design: host or cells: HL-60 cells. Particulars: 60 min pre-incubation, H-Gly-Phe-AFC substrate, average of n runs, read-out: Avg. IC50 (DPP1 Cell IC50 value ranges). The method, then: Example 99. DPP1 Cell IC50 assay
DPP1 in HL-60 cells, sequence (P53634 25-463): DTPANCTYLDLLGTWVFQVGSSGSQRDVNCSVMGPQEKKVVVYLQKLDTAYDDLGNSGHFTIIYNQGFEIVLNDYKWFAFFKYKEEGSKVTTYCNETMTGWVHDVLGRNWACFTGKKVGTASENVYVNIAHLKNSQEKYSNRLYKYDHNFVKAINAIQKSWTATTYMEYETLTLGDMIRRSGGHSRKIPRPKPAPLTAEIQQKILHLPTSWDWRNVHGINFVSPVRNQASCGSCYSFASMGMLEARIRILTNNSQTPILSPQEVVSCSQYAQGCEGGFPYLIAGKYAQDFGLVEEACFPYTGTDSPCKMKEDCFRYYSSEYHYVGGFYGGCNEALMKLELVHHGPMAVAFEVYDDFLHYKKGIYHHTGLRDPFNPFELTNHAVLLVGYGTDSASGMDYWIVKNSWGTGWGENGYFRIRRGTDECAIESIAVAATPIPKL
HL-60 cells (ATCC; Manassas, VA) were maintained in RPMI-1640 supplemented with 20% heat-inactivated FBS and 1× Antibiotic Antimycotic (Cytiva; Marlborough, MA). Media was changed every three to four days and cells were not allowed to exceed 1×10^6 cells per mL. Prior to assay, cells were collected by centrifugation at 500 rcf for 3 minutes, resuspended in PBS and counted. Cells were diluted in PBS to a concentration of 5×10^5 live cells per mL and transferred to black 96-well plates for assay, 60 μL per well. Test articles were diluted in PBS plus 0.5% DMSO, and 20 μL was added to each assay well. Compound was allowed to pre-incubate with cells with gentle shaking at 100 rpm for 60 minutes at 37° C. in a cell culture incubator maintained at 5% CO2, after which 20 μL of 500 μM H-Gly-Phe-AFC substrate (MP Biomedicals; Solon, OH) was added to each well. Plates were returned to the incubator with shaking at 100 rpm for 30 minutes, after which fluorescence was measured at Excitation/Emission 400/505 nm. % Inhibition was calculated from RFU values compared to control cell wells that received only PBS plus 0.5% DMSO. IC50 values for each compound were calculated via the XLFit (IDBS Version 5.3.1.3) Add-On to Microsoft Excel using the four parameter fit equation y=(A+((B−A)/(1+((C/x)^D)))), which appears as equation number 205 (4 Parameter Logistic Model or Sigmoidal Dose-Response Model) in XLFit. IC50 was defined as the compound concentration at which 50% of enzyme activity was inhibited when compared to the no-compound control.

For another assay, the target named is human DPP1 enzyme (Homo sapiens, UniProt P53634). Description: Human DPP1 Enzyme IC50 Assay. The assay is classed as biochemical. Particulars: activated recombinant human DPP1, 400 μM H-Gly-Arg-AMC, 10 minutes pre-incubation at 37° C., pH 6.0; average of n runs; read-out: Avg. IC50 (Human DPP1 enzyme IC50 value ranges). More on the design: was first proteolytically processed into its mature form using recombinant human cathepsin L; purchased R&D Systems. The method, then:
Example 97. Human DPP1 Enzyme IC50 Assay
Recombinant human DPP1 enzyme (R&D Systems; Minneapolis, MN) was first proteolytically processed into its mature form using recombinant human cathepsin L (R&D Systems) in a buffer consisting of 20 mM citric acid pH 4.5, 150 mM NaCl, 1 mM EDTA and 10 mM DTT. Test articles were applied to activated human DPP1 enzyme in Assay Buffer (25 mM MES pH 6.0, 50 mM NaCl, 5 mM DTT) in a total reaction volume of 125 μL. 25 μL of compound in Assay Buffer plus 5% DMSO was first added to 50 μL of activated human DPP1 enzyme at a concentration of 1 ng/μL and allowed to pre-incubate for 10 minutes at 37° C. after which 50 μL of 1000 μM H-Gly-Arg-AMC substrate (Bachem; St. Torrance, CA) was added, giving final substrate concentration of 400 μM and a final DMSO concentration of 1%. Substrate cleavage was measured for 90 minutes at 37° C., with fluorescence at Excitation/Emission 350/450 nm measured every 5 minutes. DPP1 concentration was interpolated based on its activity relative to a standard curve of activated human recombinant DPP1 enzyme. IC50 values for each compound were calculated via the XLFit (IDBS Version 5.3.1.3) Add-On to Microsoft Excel using the four parameter fit equation y={A+[(B−A)]/[1+((C/x)^D)]}, which appears as equation number 205 (4 Parameter Logistic Model or Sigmoidal Dose-Response Model) in XLFit. Default constraints were used for each Parameter. IC50 was defined as the compound concentration at which 50% of enzyme activity was inhibited when compared to the no-compound control.

Some results are limits rather than exact numbers.

human DPP1 enzyme, sequence (P53634 25-134 limits assumed): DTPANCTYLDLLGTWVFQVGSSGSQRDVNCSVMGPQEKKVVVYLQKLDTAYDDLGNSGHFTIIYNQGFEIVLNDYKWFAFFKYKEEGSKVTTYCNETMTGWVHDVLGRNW
human DPP1 enzyme, sequence (P53634 231-394 limits assumed): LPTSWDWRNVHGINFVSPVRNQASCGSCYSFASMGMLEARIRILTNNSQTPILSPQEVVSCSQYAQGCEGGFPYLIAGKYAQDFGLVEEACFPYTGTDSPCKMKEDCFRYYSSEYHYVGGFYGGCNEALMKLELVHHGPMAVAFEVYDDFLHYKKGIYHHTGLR
human DPP1 enzyme, sequence (P53634 395-463 limits assumed): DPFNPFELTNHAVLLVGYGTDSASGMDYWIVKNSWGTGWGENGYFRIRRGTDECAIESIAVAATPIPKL

As a reminder, the IC50 is the concentration that gives 50% inhibition. Take `CO[C@H]1CCO[C@H](C(=O)N[C@H](C#N)Cc2cc3c(cc2F)-c2ccc(C#N)cc2CO3)CNC1` (single isomer, unassigned) [Compound B13]: the values for the IC50 on DPP1 in HL-60 cells and on human DPP1 enzyme were less than 1 nM and less than 5 nM, respectively.
For `CO[C@H]1CCO[C@H](C(=O)NC(C#N)Cc2cc3c(cc2F)-c2ccc(C#N)cc2CO3)CNC1` (single isomer, unassigned) [Compound B14] the same measures were more than 2.5 nM and more than 15 nM.
On the same counts, the results for `Cn1c(=O)oc2cc3c(cc21)-c1cc(F)c(CC(C#N)NC(=O)[C@@H]2CNCCCCO2)cc1OC3` (single isomer, unassigned) [Compound C6] are more than 2.5 nM and more than 15 nM.
For `COC1CNC[C@@H](C(=O)N[C@H](C#N)Cc2ccc(-c3ccc4nnn(C)c4c3)cc2)OC1` (single isomer, unassigned) [Compound H12-A] the same measures were more than 2.5 nM and more than 15 nM.
Take `N#C[C@H](Cc1ccc(C23CCC(C#N)(CC2)CC3)cc1)NC(=O)[C@@H]1CNCCCO1` [Compound 4]: the values for the IC50 on DPP1 in HL-60 cells and at human DPP1 enzyme were more than 2.5 nM and more than 15 nM, respectively.
On to `CN1CCC2(CC1)C(=O)Nc1ccc(-c3ccc(C[C@@H](C#N)NC(=O)[C@@H]4CNCCCO4)cc3)cc12` [Compound 13, (2S)—N-[(1S)-1-cyano-2-(4-{1′-methyl-2-oxo-1H-spiro[indole-3,4′-piperidin]-5-yl}phenyl)ethyl]-1,4-oxazepane-2-carboxamide], for which the results for the half-maximal inhibitory concentration (IC50) on DPP1 in HL-60 cells and on human DPP1 enzyme were more than 2.5 nM and more than 15 nM, respectively.
On the same counts, the results for `N#C[C@H](Cc1ccc(-c2ccc3c(c2)C2(CCNCC2)C(=O)C3)cc1)NC(=O)[C@@H]1CNCCCO1` [Compound 22, (2S)—N-[(1S)-1-cyano-2-(4-{2-oxo-3H-spiro[indene-1,4′-piperidin]-6-yl}phenyl)ethyl]-1,4-oxazepane-2-carboxamide] are more than 2.5 nM and 5 to 15 nM.
On the same counts, the results for `CN1C(=O)C2(CCNCC2)c2cc(-c3ccc(C[C@@H](C#N)NC(=O)[C@@H]4CNCCCO4)cc3)ccc21` [Compound 23, (2S)—N-[(1S)-1-cyano-2-(4-{1-methyl-2-oxospiro[indole-3,4′-piperidin]-5-yl}phenyl)ethyl]-1,4-oxazepane-2-carboxamide] are more than 2.5 nM and 5 to 15 nM.
On the same counts, the results for `N#C[C@H](Cc1ccc(-c2ccc3c(c2)C2(CCNC2)OC3=O)cc1)NC(=O)[C@@H]1CNCCCO1` (stereo partly drawn) [Compound 25, (2S)—N-[(1S)-1-cyano-2-(4-{3-oxospiro[2-benzofuran-1,3′-pyrrolidin]-6-yl}phenyl)ethyl]-1,4-oxazepane-2-carboxamide] are more than 2.5 nM and more than 15 nM.
In the case of `N#C[C@H](Cc1ccc(-c2ccc3c(c2)C2(CN(C4COC4)C2)OC3=O)cc1)NC(=O)[C@@H]1CNCCCO1` [Compound 27, (2S)—N-[(1S)-1-cyano-2-{4-[1-(oxetan-3-yl)-3′-oxospiro[azetidine-3,1′-[2]benzofuran]-6′-yl]phenyl}ethyl]-1,4-oxazepane-2-carboxamide], the IC50 was more than 2.5 nM at DPP1 in HL-60 cells and more than 15 nM at human DPP1 enzyme.
Turning to `CN1C(=O)C2(CCN(C3COC3)CC2)c2cc(-c3ccc(C[C@@H](C#N)NC(=O)[C@@H]4CNCCCO4)cc3)ccc21` [Compound 29, (2S)—N-[(1S)-1-cyano-2-{4-[1-methyl-1′-(oxetan-3-yl)-2-oxospiro[indole-3,4′-piperidin]-5-yl]phenyl}ethyl]-1,4-oxazepane-2-carboxamide], the IC50 is more than 2.5 nM at DPP1 in HL-60 cells and more than 15 nM at human DPP1 enzyme.
On to `N#C[C@H](Cc1ccc(-c2ccc3c(c2)C2(CCNCC2)CC3=O)cc1)NC(=O)[C@@H]1CNCCCO1` [Compound 30, (2S)—N-[(1S)-1-cyano-2-(4-{3-oxo-2H-spiro[indene-1,4′-piperidin]-6-yl}phenyl)ethyl]-1,4-oxazepane-2-carboxamide], for which the values for the IC50 at DPP1 in HL-60 cells and at human DPP1 enzyme were more than 2.5 nM and 5 to 15 nM, respectively.
On the same counts, the results for `COc1ccc(-c2ccc(C[C@@H](C#N)NC(=O)[C@@H]3CNCCCO3)cc2)cc1-n1cnnc1` [Compound 31, (2S)—N-[(1S)-1-cyano-2-[4′-methoxy-3′-(1,2,4-triazol-4-yl)-[1,1′-biphenyl]-4-yl]ethyl]-1,4-oxazepane-2-carboxamide] are more than 2.5 nM and more than 15 nM.
On the same counts, the results for `CN1C(=O)C2(CCN(C3CCOCC3)CC2)c2cc(-c3ccc(C[C@@H](C#N)NC(=O)[C@@H]4CNCCCO4)cc3)ccc21` [Compound 35] are more than 2.5 nM and more than 15 nM.
On the same counts, the results for `N#C[C@H](Cc1ccc(-c2ccc3c(c2)CCS3)cc1)NC(=O)[C@@H]1CNCCCO1` [Compound A4, (2S)—N-[(1S)-1-cyano-2-[4-(2,3-dihydro-1-benzothiophen-5-yl)phenyl]ethyl]-1,4-oxazepane-2-carboxamide] are more than 2.5 nM and more than 15 nM.
On to `N#C[C@H](Cc1ccc(-c2nc3c(s2)CS(=O)(=O)CC3)cc1)NC(=O)[C@@H]1CNCCCO1` [Compound A6], for which the IC50 at DPP1 in HL-60 cells is more than 2.5 nM; on human DPP1 enzyme, more than 15 nM.
For the molecule `N#C[C@H](Cc1ccc(-c2cc3ccncc3[nH]2)cc1)NC(=O)[C@@H]1CNCCCO1` [Compound A7, (2S)—N-[(1S)-1-cyano-2-(4-{1H-pyrrolo[2,3-c]pyridin-2-yl}phenyl)ethyl]-1,4-oxazepane-2-carboxamide], the IC50 is more than 2.5 nM at DPP1 in HL-60 cells and more than 15 nM at human DPP1 enzyme.
On the same counts, the results for `N#C[C@H](Cc1ccc(-c2cnc3c(c2)COCCN3)cc1)NC(=O)[C@@H]1CNCCCO1` [Compound A9, (2S)—N-[(1S)-1-cyano-2-(4-{1H,2H,3H,5H-pyrido[2,3-e][1,4]oxazepin-7-yl}phenyl)ethyl]-1,4-oxazepane-2-carboxamide] are more than 2.5 nM and more than 15 nM.
As to `N#C[C@H](Cc1ccc(-c2cc3n(c2)CCCNC3=O)cc1)NC(=O)[C@@H]1CNCCCO1` [Compound A12, (2S)—N-[(1S)-1-cyano-2-(4-{1-oxo-2H,3H,4H,5H-pyrrolo[1,2-a][1,4]diazepin-8-yl}phenyl)ethyl]-1,4-oxazepane-2-carboxamide], the values for the IC50 on DPP1 in HL-60 cells and at human DPP1 enzyme were more than 2.5 nM and more than 15 nM, respectively.
For `Cn1c(=O)ccc2ncc(-c3ccc(C[C@@H](C#N)NC(=O)[C@@H]4CNCCCO4)cc3)cc21` [Compound A18, (2S)—N-[(1S)-1-cyano-2-[4-(5-methyl-6-oxo-1,5-naphthyridin-3-yl)phenyl]ethyl]-1,4-oxazepane-2-carboxamide] the same measures were more than 2.5 nM and more than 15 nM.
On the same counts, the results for `Cc1c(C(N)=O)sc2ncc(-c3ccc(C[C@@H](C#N)NC(=O)[C@@H]4CNCCCO4)cc3)cc12` [Compound A19, (2S)—N-[(1S)-2-(4-{2-carbamoyl-3-methylthieno[2,3-b]pyridin-5-yl}phenyl)-1-cyanoethyl]-1,4-oxazepane-2-carboxamide] are more than 2.5 nM and more than 15 nM.
Regarding `N#C[C@H](Cc1ccc(-c2ccc3c(c2)N(C(N)=O)CCC3)cc1)NC(=O)[C@@H]1CNCCCO1` [Compound A20, 7-{4-[(2S)-2-cyano-2-[(2S)-1,4-oxazepan-2-ylformamido]ethyl]phenyl}-3,4-dihydro-2H-quinoline-1-carboxamide], the figures for the IC50 on DPP1 in HL-60 cells and on human DPP1 enzyme were more than 2.5 nM and more than 15 nM, respectively.
On the same counts, the results for `CO[C@@H]1CCNC[C@@H](C(=O)N[C@H](C#N)Cc2ccc(-c3cc4c(C)nc(C)cn4c3)cc2)OC1` [Compound A32, (2S,7R)—N-[(1S)-1-cyano-2-(4-{1,3-dimethylpyrrolo[1,2-a]pyrazin-7-yl}phenyl)ethyl]-7-methoxy-1,4-oxazocane-2-carboxamide] are 1 to 2.5 nM and more than 15 nM.
